Reference: ChEMBL document CHEMBL4265897, “Discovery of benzothiazole amides as potent antimycobacterial agents” (Bioorg Med Chem Lett, 2018)
Converted amounts (≈) assume the structure as drawn.

What was measured:
[1] = tested on: Mycobacteroides abscessus; test: Antimycobacterial activity against Mycobacterium abscessus ATCC 19977 by CLSI method; format: functional
Mycobacterium avium = test: Antimycobacterial activity against Mycobacterium avium 101 by CLSI method; format: functional
[2] = tested on: Mycolicibacterium fortuitum; test: Antimycobacterial activity against Mycobacterium fortuitum 41 by CLSI method; format: functional
[3] = tested on: Mycobacteroides abscessus; test: Antimycobacterial activity against Mycobacterium abscessus 21 by CLSI method; format: functional
[4] = tested on: Mycobacteroides abscessus; test: Antimycobacterial activity against Mycobacterium abscessus 1 by CLSI method; format: functional
Mycobacteroides chelonae = test: Antimycobacterial activity against Mycobacterium chelonae 93 by CLSI method; format: functional
[5] = tested on: Mycobacteroides abscessus; test: Antimycobacterial activity against Mycobacterium massiliense 119 by CLSI method; format: functional, Mycobacterium abscessus subsp. massiliense
[6] = tested on: Mycobacterium tuberculosis; test: Antimycobacterial activity against Mycobacterium tuberculosis H37Rv MC2 6206 by CLSI method; format: functional
[7] = tested on: Mycolicibacterium peregrinum; test: Antimycobacterial activity against Mycobacterium peregrinum ATCC 700686 by CLSI method; format: functional
[8] = tested on: Mycobacterium intracellulare; test: Antimycobacterial activity against Mycobacterium intracellulare 1956 by CLSI method; format: functional
[9] = tested on: Mycobacteroides abscessus; test: Antimycobacterial activity against Mycobacterium abscessus 79 by CLSI method; format: functional
Cytochrome P450 2C8 = target: T1, Cytochrome P450 2C8 (Homo sapiens, UniProt P10632); test: Inhibition of CYP2C8 (unknown origin); format: ADME
T1 sequence (P10632 whole entry): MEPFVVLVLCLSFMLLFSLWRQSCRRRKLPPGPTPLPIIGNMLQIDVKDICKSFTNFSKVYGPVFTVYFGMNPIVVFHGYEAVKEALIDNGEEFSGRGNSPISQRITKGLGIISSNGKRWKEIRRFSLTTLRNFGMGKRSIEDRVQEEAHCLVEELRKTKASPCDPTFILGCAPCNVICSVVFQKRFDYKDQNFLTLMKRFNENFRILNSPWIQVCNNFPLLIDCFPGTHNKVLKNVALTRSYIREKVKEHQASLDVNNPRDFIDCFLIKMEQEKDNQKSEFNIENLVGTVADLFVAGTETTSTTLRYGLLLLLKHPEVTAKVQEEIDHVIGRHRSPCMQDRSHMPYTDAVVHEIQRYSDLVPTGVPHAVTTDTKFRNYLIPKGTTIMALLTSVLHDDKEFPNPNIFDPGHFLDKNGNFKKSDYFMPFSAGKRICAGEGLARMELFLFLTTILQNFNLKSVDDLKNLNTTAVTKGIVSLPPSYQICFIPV

HepG2 = test: Cytotoxicity against human HepG2 cells; format: cell-based
Cytochrome P450 2C19 = Cytochrome P450 2C19 (Homo sapiens, UniProt P33261); test: Inhibition of CYP2C19 (unknown origin); format: ADME
Chain of Cytochrome P450 2C19 (P33261 whole entry): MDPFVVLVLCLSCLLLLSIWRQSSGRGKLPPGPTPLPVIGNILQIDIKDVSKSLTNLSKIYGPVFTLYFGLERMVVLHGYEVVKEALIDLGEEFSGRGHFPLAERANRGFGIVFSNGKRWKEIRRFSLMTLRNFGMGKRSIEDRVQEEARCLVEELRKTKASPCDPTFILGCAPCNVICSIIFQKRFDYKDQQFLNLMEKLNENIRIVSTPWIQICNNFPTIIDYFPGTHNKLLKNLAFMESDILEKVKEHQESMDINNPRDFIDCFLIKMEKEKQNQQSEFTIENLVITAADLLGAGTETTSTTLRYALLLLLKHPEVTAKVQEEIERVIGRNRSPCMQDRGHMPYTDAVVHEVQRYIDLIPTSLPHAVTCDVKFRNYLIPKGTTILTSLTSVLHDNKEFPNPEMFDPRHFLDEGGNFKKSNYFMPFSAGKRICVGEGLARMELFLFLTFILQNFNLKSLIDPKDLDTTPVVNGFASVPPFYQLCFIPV

Cytochrome P450 3A4 [10] = target: T2, Cytochrome P450 3A4 (Homo sapiens, UniProt P08684); test: Inhibition of CYP3A4 (unknown origin) using midazolam as substrate; format: ADME
T2 sequence (P08684 whole entry): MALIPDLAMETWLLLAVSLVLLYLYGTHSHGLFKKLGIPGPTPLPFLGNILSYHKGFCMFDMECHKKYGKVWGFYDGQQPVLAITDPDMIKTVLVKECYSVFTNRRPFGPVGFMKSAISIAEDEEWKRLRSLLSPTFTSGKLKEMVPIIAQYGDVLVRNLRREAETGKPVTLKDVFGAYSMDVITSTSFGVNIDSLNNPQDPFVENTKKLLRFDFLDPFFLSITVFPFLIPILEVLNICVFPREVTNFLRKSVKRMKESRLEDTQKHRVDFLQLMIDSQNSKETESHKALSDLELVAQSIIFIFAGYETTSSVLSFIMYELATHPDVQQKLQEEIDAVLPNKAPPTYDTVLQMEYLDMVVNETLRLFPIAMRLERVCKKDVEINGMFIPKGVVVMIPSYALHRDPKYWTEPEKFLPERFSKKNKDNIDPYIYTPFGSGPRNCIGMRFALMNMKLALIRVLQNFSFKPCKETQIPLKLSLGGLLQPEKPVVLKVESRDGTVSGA

Cytochrome P450 2B6 = target: T3, Cytochrome P450 2B6 (Homo sapiens, UniProt P20813); test: Inhibition of CYP2B6 (unknown origin); format: ADME
T3 sequence (P20813 whole entry): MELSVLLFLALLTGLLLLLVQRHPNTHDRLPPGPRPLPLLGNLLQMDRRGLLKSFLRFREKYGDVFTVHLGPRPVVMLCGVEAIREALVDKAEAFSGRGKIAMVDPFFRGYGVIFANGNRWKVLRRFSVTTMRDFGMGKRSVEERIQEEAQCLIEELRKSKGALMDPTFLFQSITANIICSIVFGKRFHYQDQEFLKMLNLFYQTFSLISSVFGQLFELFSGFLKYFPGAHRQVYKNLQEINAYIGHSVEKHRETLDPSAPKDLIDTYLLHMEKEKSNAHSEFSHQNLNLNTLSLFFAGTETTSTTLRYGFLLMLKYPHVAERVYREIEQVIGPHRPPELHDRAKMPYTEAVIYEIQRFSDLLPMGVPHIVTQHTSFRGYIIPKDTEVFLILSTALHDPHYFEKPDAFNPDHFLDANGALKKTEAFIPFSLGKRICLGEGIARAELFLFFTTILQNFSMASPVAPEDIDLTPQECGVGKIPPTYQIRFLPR

[11] = Solubility of the compound; format: physicochemical
RBCs = test: Hemolytic activity in RBC (unknown origin) at 128 ug/ml; format: ADME, cell-based; conditions: erythrocyte
[12] = Protein binding in human serum; format: ADME, cell-free; conditions: read-out: PB
[13] = tested on: Mycobacteroides abscessus; test: Antimycobacterial activity against Mycobacterium abscessus 103 by CLSI method; format: functional
Cytochrome P450 3A4 [14] = target: T2, Cytochrome P450 3A4; test: Inhibition of CYP3A4 (unknown origin) using testosterone as substrate; format: ADME
Cytochrome P450 2D6 = Cytochrome P450 2D6 (Homo sapiens, UniProt P10635); test: Inhibition of CYP2D6 (unknown origin); format: ADME
Chain of Cytochrome P450 2D6 (P10635 whole entry): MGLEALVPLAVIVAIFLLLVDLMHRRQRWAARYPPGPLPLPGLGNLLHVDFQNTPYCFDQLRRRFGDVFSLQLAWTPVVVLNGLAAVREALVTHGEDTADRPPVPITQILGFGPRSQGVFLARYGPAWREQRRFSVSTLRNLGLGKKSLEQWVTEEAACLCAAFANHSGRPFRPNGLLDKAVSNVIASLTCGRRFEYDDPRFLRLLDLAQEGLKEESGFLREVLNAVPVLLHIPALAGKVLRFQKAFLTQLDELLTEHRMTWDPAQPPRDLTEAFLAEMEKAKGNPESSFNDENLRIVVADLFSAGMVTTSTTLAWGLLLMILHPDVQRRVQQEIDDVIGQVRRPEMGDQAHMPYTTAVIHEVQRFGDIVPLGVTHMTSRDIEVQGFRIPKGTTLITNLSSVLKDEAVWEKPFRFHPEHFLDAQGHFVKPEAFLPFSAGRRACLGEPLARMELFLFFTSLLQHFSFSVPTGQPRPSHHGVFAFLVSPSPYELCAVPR

Cytochrome P450 2C9 = Cytochrome P450 2C9 (Homo sapiens, UniProt P11712); test: Inhibition of CYP2C9 (unknown origin); format: ADME
Chain of Cytochrome P450 2C9 (P11712 whole entry): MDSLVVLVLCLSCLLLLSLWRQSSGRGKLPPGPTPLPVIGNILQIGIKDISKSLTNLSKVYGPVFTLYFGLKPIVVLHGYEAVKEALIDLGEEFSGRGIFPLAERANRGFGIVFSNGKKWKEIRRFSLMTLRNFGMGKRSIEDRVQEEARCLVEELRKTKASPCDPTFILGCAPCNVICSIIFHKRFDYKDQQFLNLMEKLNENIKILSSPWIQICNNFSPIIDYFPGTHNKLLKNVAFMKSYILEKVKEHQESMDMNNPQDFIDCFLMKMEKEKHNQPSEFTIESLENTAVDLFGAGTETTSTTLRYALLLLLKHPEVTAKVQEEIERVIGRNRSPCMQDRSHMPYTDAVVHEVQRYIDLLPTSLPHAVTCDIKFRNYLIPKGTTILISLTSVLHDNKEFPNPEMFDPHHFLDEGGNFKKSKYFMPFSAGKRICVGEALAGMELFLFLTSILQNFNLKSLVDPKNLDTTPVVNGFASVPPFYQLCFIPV

Mus musculus = test: Toxicity in mouse assessed as abnormal behavior at 100 to 300 mg/kg, po administered as single dose; format: organism-based; conditions: in vivo
[15] = Oral bioavailability in mouse at 100 mg/kg; format: ADME, organism-based; conditions: in vivo
[16] = Clearance in mouse plasma at 10 mg/kg, iv; format: ADME, organism-based

Row | SMILES | MIC [1] [µg/mL] | MIC (Mycobacterium avium) [µg/mL] | MIC [2] [µg/mL] | MIC [3] [µg/mL] | MIC [4] [µg/mL] | MIC (Mycobacteroides chelonae) [µg/mL] | MIC [5] [µg/mL] | MIC [6] [µg/mL] | MIC [7] [µg/mL] | MIC [8] [µg/mL] | MIC [9] [µg/mL] | IC50 (Cytochrome P450 2C8) [µM] | IC50 (Cytochrome P450 2C19) [µM] | IC50 (Cytochrome P450 3A4 [10]) [µM] | IC50 (Cytochrome P450 2B6) [µM] | solubility [11] | Activity (RBCs) | fraction unbound [12] | MIC [13] [µg/mL] | IC50 (Cytochrome P450 3A4 [14]) [µM] | other results
1 | COc1ccc2nc(NC(=O)C3CC(C)CC(C)(C)C3)sc2c1 (centres undefined) | 1 (≈ 3.01 µM) | 16 (≈ 48.1 µM) | 2 (≈ 6.02 µM) | 1 (≈ 3.01 µM) | 2 (≈ 6.02 µM) | 0.25 (≈ 0.752 µM) | 0.5 (≈ 1.5 µM) | 8 (≈ 24.1 µM) | 1 (≈ 3.01 µM) | 8 (≈ 24.1 µM) | 1 (≈ 3.01 µM) |  |  |  |  |  |  |  |  |  | 
2 | CC1CC(C(=O)Nc2nc3ccc(OC(F)(F)F)cc3s2)CC(C)(C)C1 (centres undefined) |  | > 64 | 1 (≈ 2.59 µM) | 0.25 (≈ 0.647 µM) | 0.5 (≈ 1.29 µM) | 0.12 (≈ 0.311 µM) | 0.25 (≈ 0.647 µM) |  | 0.25 (≈ 0.647 µM) | > 64 | 0.25 (≈ 0.647 µM) | > 20 | > 20 | > 20 | > 20 | Insoluble | Non-Toxic | < 0.01 | 0.25 (≈ 0.647 µM) | > 20 | IC50 (HepG2): > 100 µM; IC50 (Cytochrome P450 2D6): > 20 µM; IC50 (Cytochrome P450 2C9): > 20 µM
3 | CC1CC(C(=O)Nc2nc3ccc(SC(F)(F)F)cc3s2)CC(C)(C)C1 (centres undefined) | 16 (≈ 39.8 µM) | > 64 | > 64 | 0.5 (≈ 1.24 µM) | 2 (≈ 4.97 µM) | 0.12 (≈ 0.298 µM) | 0.25 (≈ 0.621 µM) |  | 8 (≈ 19.9 µM) | > 64 | 64 (≈ 159 µM) |  |  |  |  |  |  |  | 0.5 (≈ 1.24 µM) |  | 
4 | CC1CC(C(=O)Nc2nc3c(F)cc(F)cc3s2)CC(C)(C)C1 (centres undefined) |  | 64 (≈ 189 µM) | 0.25 (≈ 0.739 µM) | 0.5 (≈ 1.48 µM) | 1 (≈ 2.95 µM) | 0.25 (≈ 0.739 µM) | 0.5 (≈ 1.48 µM) |  | 0.2 (≈ 0.591 µM) | 4 (≈ 11.8 µM) | 0.5 (≈ 1.48 µM) |  |  |  |  |  |  |  | 0.5 (≈ 1.48 µM) |  | Activity (Mus musculus): Non-Toxic
5 | CC1CC(C)CC(C(=O)Nc2nc3ccc(C(F)(F)F)cc3s2)C1 (centres undefined) |  | > 64 | 1 (≈ 2.81 µM) | 1 (≈ 2.81 µM) | 2 (≈ 5.61 µM) | 1 (≈ 2.81 µM) | 0.5 (≈ 1.4 µM) | 4 (≈ 11.2 µM) | 0.25 (≈ 0.701 µM) | > 64 | 2 (≈ 5.61 µM) | > 20 | > 20 | > 20 | > 20 | Insoluble | Non-Toxic | < 0.01 | 0.25 (≈ 0.701 µM) | > 20 | bioavailability [15]: 53%; clearance [16]: 28.3 mL/min/kg; IC50 (Cytochrome P450 2D6): 1.4 µM; IC50 (Cytochrome P450 2C9): > 20 µM
6 | CC1CC(C(=O)Nc2nc3cc(Br)ccc3s2)CC(C)(C)C1 (centres undefined) | 32 (≈ 83.9 µM) | > 64 | 16 (≈ 42 µM) | 16 (≈ 42 µM) | 32 (≈ 83.9 µM) | 16 (≈ 42 µM) | 64 (≈ 168 µM) |  | 4 (≈ 10.5 µM) | > 64 | 16 (≈ 42 µM) |  |  |  |  |  |  |  | 16 (≈ 42 µM) |  | 
7 | CC1CC(C(=O)Nc2nc3cc(F)ccc3s2)CC(C)(C)C1 (centres undefined) | 1 (≈ 3.12 µM) | 16 (≈ 49.9 µM) | 2 (≈ 6.24 µM) | 0.5 (≈ 1.56 µM) | 2 (≈ 6.24 µM) | 2 (≈ 6.24 µM) | 2 (≈ 6.24 µM) |  | 4 (≈ 12.5 µM) | 16 (≈ 49.9 µM) | 2 (≈ 6.24 µM) |  |  |  |  |  |  |  |  |  | 
8 | CC1CC(C(=O)Nc2nc3ccc(Cl)cc3s2)CC(C)(C)C1 (centres undefined) |  | 16 (≈ 47.5 µM) | 0.25 (≈ 0.742 µM) | 0.25 (≈ 0.742 µM) | 0.5 (≈ 1.48 µM) | 0.25 (≈ 0.742 µM) | 0.5 (≈ 1.48 µM) | 4 (≈ 11.9 µM) | 0.12 (≈ 0.356 µM) | 4 (≈ 11.9 µM) | 0.25 (≈ 0.742 µM) | > 20 | 15.5 | > 20 | 14.9 | Insoluble | Non-Toxic | < 0.01 | 0.25 (≈ 0.742 µM) | > 20 | IC50 (Cytochrome P450 2D6): 0.2 µM; IC50 (Cytochrome P450 2C9): > 20 µM
